Measured values published in US9790545B2, “Method for determining the neurodevelopmental toxicity of a compound in vitro” (UNIVERSITEIT MAASTRICHT, priority 2012, dated 2017).
Where two headings read alike, the source gives them in different places.

How the values were obtained:
Hoxb6 = experiment: Relative gene expression in neural differentiation culture of murine embryonic stem cells (ES-D3), microarray; conditions: exposed from day 3, harvested day 4 (24 h exposure), ratio to reference value, concentration coded in label (L low, H high, Table 3)
1700011H14Rik = experiment: as above; conditions: exposed from day 3, harvested day 4 (24 h exposure), ratio to reference value, concentration coded in label (L low, H high, Table 3)
Nrk = experiment: as above; conditions: exposed from day 3, harvested day 4 (24 h exposure), ratio to reference value, concentration coded in label (L low, H high, Table 3)
Tph1 = experiment: as above; conditions: exposed from day 3, harvested day 4 (24 h exposure), ratio to reference value, concentration coded in label (L low, H high, Table 3)
[1] = system: neural outgrowth of embryoid bodies from murine embryonic stem cells (ES-D3); experiment: Golden standard classification of neurodevelopmental toxicity (morphological scoring of neural outgrowth); conditions: for Golden standard: tox / nontox at the concentration coded in the label (Table 3); for Neuro-developmentally toxic: yes / no at the concentration (μM) given in Table 3
[2] = system: neural outgrowth of embryoid bodies from murine embryonic stem cells (ES-D3)

CCCC(CCC)C(=O)O [VpaL, Valproic acid]
relative expression value Hoxb6 (Hoxb6): 0.807 | relative expression value Hoxb6 (Hoxb6; listed as VpaH): 0.721 | relative expression value 1700011H14Rik (1700011H14Rik): 0.962 | relative expression value 1700011H14Rik (1700011H14Rik; listed as VpaH): 0.316 | relative expression value Nrk (Nrk): 0.914 | relative expression value Nrk (Nrk; listed as VpaH): 1.518 | relative expression value Tph1 (Tph1): 0.944 | relative expression value Tph1 (Tph1; listed as VpaH): 1.130 | Golden standard [1]: nontox | Golden standard ([1]; listed as VpaH): tox | Neuro-developmentally toxic [1]: no | Neuro-developmentally toxic ([1]; listed as vpaH): yes

CC=O [aceL, Acetaldehyde]
relative expression value Hoxb6 (Hoxb6): 0.917 | relative expression value Hoxb6 (Hoxb6; listed as aceH): 1.100 | relative expression value 1700011H14Rik (1700011H14Rik): 1.175 | relative expression value 1700011H14Rik (1700011H14Rik; listed as aceH): 0.562 | relative expression value Nrk (Nrk): 0.909 | relative expression value Nrk (Nrk; listed as aceH): 1.290 | relative expression value Tph1 (Tph1): 0.891 | relative expression value Tph1 (Tph1; listed as aceH): 1.094 | Golden standard [1]: nontox | Golden standard ([1]; listed as aceH): tox | Neuro-developmentally toxic [1]: no | Neuro-developmentally toxic ([1]; listed as aceH): yes

NC(=O)N1c2ccccc2C=Cc2ccccc21 [cbzL, Carbamazepine]
relative expression value Hoxb6 (Hoxb6): 0.991 | relative expression value Hoxb6 (Hoxb6; listed as cbzH): 0.950 | relative expression value 1700011H14Rik (1700011H14Rik): 0.870 | relative expression value 1700011H14Rik (1700011H14Rik; listed as cbzH): 0.533 | relative expression value Nrk (Nrk): 1.055 | relative expression value Nrk (Nrk; listed as cbzH): 1.217 | relative expression value Tph1 (Tph1): 0.945 | relative expression value Tph1 (Tph1; listed as cbzH): 0.751 | Golden standard [1]: nontox | Golden standard ([1]; listed as cbzH): tox | Neuro-developmentally toxic [1]: no | Neuro-developmentally toxic ([1]; listed as cbzH): yes

CCCCC(O)(Cn1cncn1)c1ccc(Cl)cc1Cl (stereo not shown) [hexL, Hexaconazole]
Golden standard [2]: nontox | Neuro-developmentally toxic [2]: no

CC1(C)S[C@@H]2[C@H](NC(=O)Cc3ccccc3)C(=O)N2[C@H]1C(=O)[O-].[Na+] [pengL, Penicillin G]
Golden standard [1]: nontox | Neuro-developmentally toxic [1]: no

O=C1NC(=O)C(c2ccccc2)(c2ccccc2)N1 [pheL, Phenytoin]
relative expression value Hoxb6 (Hoxb6): 0.839 | relative expression value Hoxb6 (Hoxb6; listed as pheH): 0.840 | relative expression value 1700011H14Rik (1700011H14Rik): 1.146 | relative expression value 1700011H14Rik (1700011H14Rik; listed as pheH): 0.995 | relative expression value Nrk (Nrk): 0.766 | relative expression value Nrk (Nrk; listed as pheH): 0.781 | relative expression value Tph1 (Tph1): 0.817 | relative expression value Tph1 (Tph1; listed as pheH): 0.781 | Golden standard [1]: nontox | Golden standard ([1]; listed as pheH): tox | Neuro-developmentally toxic [1]: no | Neuro-developmentally toxic ([1]; listed as pheH): yes

Methylmercury chloride [mehgH]
relative expression value Hoxb6 (Hoxb6): 1.302 | relative expression value 1700011H14Rik (1700011H14Rik): 1.665 | relative expression value Nrk (Nrk): 0.719 | relative expression value Tph1 (Tph1): 1.116 | Golden standard [1]: tox | Neuro-developmentally toxic [1]: yes
